Reference: US4118424A, “Biodegradable insecticides” (priority 1976, dated 1978)
Converted amounts (≈) assume the structure as drawn.

What was measured:
[1] = system: houseflies, susceptible strain (SNAIDM); assay: Insecticidal activity, housefly, susceptible strain (SNAIDM), Table I; assay type: in vivo; details: for SNAIDM alone (insecticidal activity; head is a drawing): compound alone; for SNAIDM with P.B. (insecticidal activity; head is a drawing): with piperonyl butoxide synergist
Source text: (§1) Metabolic studies involving insects, mice, and fish and a model ecosystem (such as described in U.S. Pat. No. 3,787,505) and insecticidal activity studies generally involving flies and mosquitoes have shown that both the symmetrical and the asymmetrical compounds of the present invention are effective. Thus, the new compounds can be represented by the general formula: [drawing 3] where R1 is H or Cl and R2 is CH3 or Cl, X and X^1 are the same or different and each is selected from the group consisting of C1 to C3 alkyl groups and C1 to C4 alkoxy groups.
(§2) In addition, DCP was tested for mouse toxicity, fish toxicity and biodegradibility.

[2] = system: houseflies, DDT resistant strain (RSP); assay: Insecticidal activity, housefly, resistant strain (RSP), Table I; assay type: in vivo; details: for RSP alone (insecticidal activity; head is a drawing): compound alone; for RSP with P.B. (insecticidal activity; head is a drawing): with piperonyl butoxide synergist
Source text: as §1, §2

mice [3] = assay: Mouse toxicity, oral, Table I; assay type: in vivo; details: for mouse toxicity (head is a drawing): oral administration
Description: as §2

fish = assay: Fish toxicity, Table I; assay type: in vivo
Description: as §2

[4] = Biodegradability studies, general statement
Source text: as §1, §2

[5] = system: Musca domestica (NAIDM strain); assay: Insect toxicity, Musca domestica NAIDM strain; assay type: in vivo
[6] = system: Musca domestica Rsp strain; assay: Insect toxicity, Musca domestica Rsp strain, DDT-resistant; assay type: in vivo
Culex fatigans larvae = assay: Insect toxicity, Culex fatigans larvae; assay type: in vivo; details: Culex quinquefasciatus
Culex fatigans adults = assay: Insect toxicity, Culex fatigans adults; assay type: in vivo
[7] = system: Anopheles albimanus larvae; assay: Insect toxicity, Anopheles albimanus larvae; assay type: in vivo
[8] = system: Anopheles albimanus adults; assay: Insect toxicity, Anopheles albimanus adults; assay type: in vivo
Phormia regina = assay: Insect toxicity, Phormia regina; assay type: in vivo
Anopheles albimanus = assay: Persistence on plywood surfaces of test huts, Anopheles albimanus; assay type: in vivo; details: adult mosquitoes
Description: (§3) The persistence of some of the compounds of the present invention was evaluated and compared with that of ethoxychlor. In these tests, the compounds were applied to the plywood surfaces of test huts and the mortalities of adult mosquitoes contained in the huts were measured to determine the number of weeks that 50% mortality continued to occur.

Culex fatigans = assay: Persistence on plywood surfaces of test huts, Culex fatigans; assay type: in vivo; details: adult mosquitoes
Description: as §3

[9] = system: green sunfish (Lepomis cyanellus); assay: Green sunfish toxicity over a period of time; assay type: in vivo; details: initial concentration 0.1 ppm
Source text: The compounds of Example III, V, XI, XIV and XXI were further tested and compared with ethoxychlor to determine fish toxicities over a period of time. In these tests, green sunfish (Lepomis cyanellus) were subject to an initial concentration dosage of 0.1 ppm and the number of days that 100 percent mortalities occurred was observed.

Mouse toxicity, LD50 = assay type: in vivo, mice; details: in vivo
mice [10] = assay: Mouse toxicity, LD50; assay type: in vivo; details: versus ethoxychlor
[11] = system: insects (flies and mosquitoes); assay: Insecticidal activity, general statement; assay type: in vivo; details: versus ethoxychlor
Source text: as §1

For `COc1ccc(C(c2ccc(OC)cc2)C(C)Cl)cc1` (stereo not drawn) [DCP, 1,1-bis(p-methoxyphenyl)-2-chloropropane], the “toxicity to susceptible strain of houseflies, alone (in words)” value ([1]; alone) was “not as toxic as DDT or methoxychlor”, the “SNAIDM alone (insecticidal activity; head is a drawing)” value (“SNAIDM alone” below) [1] was 935 and the “toxicity to susceptible strain of houseflies with piperonyl butoxide (in words)” value ([1]; with P.B.) was “at least as toxic as methoxychlor and considerably more toxic than DDT”. The “SNAIDM with P.B. (insecticidal activity; head is a drawing)” value [1] was 3.5, the “toxicity to DDT resistant strain of houseflies, alone (in words)” value ([2]; DDT resistant strain, alone) was “not as toxic as DDT or methoxychlor” and the “RSP alone (insecticidal activity; head is a drawing)” value (from here on “RSP alone”) ([2]; resistant strain) was over 500. For the same molecule, the “toxicity to resistant strain of houseflies with piperonyl butoxide (in words)” value ([2]; resistant strain, with P.B.) was “at least as toxic as methoxychlor and considerably more toxic than DDT”, the “RSP with P.B. (insecticidal activity; head is a drawing)” value ([2]; resistant strain) was 4.1 and the “mouse toxicity (head is a drawing)” value (mice [3]) was over 1000. For the same molecule, the “mouse toxicity (in words)” value (mice [3]; oral administrations to mice) was “considerably less toxic than DDT and comparable to methoxychlor”, the “fish toxicity (head is a drawing)” value (fish) was over 3 and the “fish toxicity (in words)” value (fish) was “less toxic than either DDT or methoxychlor”. For the same molecule, the “biodegradability (in words)” value [4] was “more biodegradable than methoxychlor”.
For `Clc1ccc(C(c2ccc(Cl)cc2)C(Cl)(Cl)Cl)cc1` [DDT, 1,1,1-trichloro-2,2-bis(p-chlorophenyl) ethane, reference compound], the “SNAIDM alone” value [1] was 14.0, the “SNAIDM with P.B. (insecticidal activity; head is a drawing)” value [1] was 5.5 and the “RSP alone” value ([2]; resistant strain) was 270. The “RSP with P.B. (insecticidal activity; head is a drawing)” value ([2]; resistant strain) was 70, the “mouse toxicity (head is a drawing)” value (mice [3]) was 200 and the “fish toxicity (head is a drawing)” value (fish) was 0.30.
For `COc1ccc(C(c2ccc(OC)cc2)C(Cl)(Cl)Cl)cc1` [Methoxychlor, reference compound], the “SNAIDM alone” value [1] was 45.0, the “SNAIDM with P.B. (insecticidal activity; head is a drawing)” value [1] was 3.5 and the “RSP alone” value ([2]; resistant strain) was 48. The “RSP with P.B. (insecticidal activity; head is a drawing)” value ([2]; resistant strain) was 4.6 and the “fish toxicity (head is a drawing)” value (fish) was 1.
For `CCOc1ccc(C(c2ccc(C)cc2)C(C)C)cc1` (stereo not drawn) [XIV], the LD50 ([5]; Musca domestica, without PB) was 70 mg/kg, the “Musca domestica NAIDM (w/PB) LD50” value ([5]; with PB) was 18 µg/g and the LD50 ([6]; Musca domestica, without PB) was 150 mg/kg. For the same molecule, the “Musca domestica Rsp strain w/PB LD50” value ([6]; with PB) was 31 µg/g, the LC50 (Culex fatigans larvae) was 0.052 µg/mL (≈ 0.194 µM) and the “Culex fatigans adults-LC50” value (Culex fatigans adults) was 5.0 ug/cm^2. The LC50 [7] was 0.275 µg/mL (≈ 1.02 µM), the “Anopheles albimanus adults LC50” value [8] was 5 ug/cm^2 and the LD50 (Phormia regina) was 35 mg/kg. For the same molecule, the “Anopheles albimanus, P50 (number of weeks that at least 50% mortality occurred)” value (Anopheles albimanus) was 6 weeks, the “Culex fatigans, P50 (number of weeks that at least 50% mortality occurred)” value (Culex fatigans) was 4 weeks and the “Number of days 100% mortality” value [9] was 0 days. For the same molecule, the LD50 (Mouse toxicity, LD50) was at least 1000 mg/kg, the “safety to mice relative to ethoxychlor” value (mice [10]) was “at least five times safer to mice than is ethoxychlor” and the “insecticidal activity relative to ethoxychlor” value [11] was “at least generally comparable to ethoxychlor”.
